PubChem BioAssay (NCI)
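Protocol summary: plate cells (96-well), add compound at 5 concentrations, incubate 48 h, interpolate endpoints linearly. The concentration for 50% growth inhibition is given as GI50. TGI is the concentration that stops growth completely.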

What was measured:
Assay in all cases: inhibition of tumour cell growth, NCI panel, 48 h; in the data active = GI50 below about 0.43 µM; inactive = the rest
[1] = test system: OVCAR-4 ovarian
[2] = test system: COLO 205 colon
[3] = test system: MDA-MB-231 breast
[4] = test system: OVCAR-5 ovarian
[5] = test system: UACC-62 melanoma
[6] = test system: HCC-2998 colon
[7] = test system: M14 melanoma
[8] = test system: RXF 393 renal
[9] = test system: NCI-H522 lung
[10] = test system: U251 CNS
[11] = test system: HS 578T breast
[12] = test system: SNB-75 CNS
[13] = test system: RPMI-8226 leukemia
[14] = test system: SK-MEL-2 melanoma
[15] = test system: A549 NSCLC
[16] = test system: NCI-H226 lung
[17] = test system: MCF7 breast
[18] = test system: NCI/ADR-RES ovarian
[19] = test system: NCI-H460 lung
[20] = test system: SNB-19 CNS
[21] = test system: SF-268 CNS
[22] = test system: NCI-H23 lung
[23] = test system: IGROV1 ovarian
[24] = test system: CAKI-1 renal
[25] = test system: OVCAR-8 ovarian
[26] = test system: OVCAR-3 ovarian
[27] = test system: SW-620 colon
[28] = test system: SK-MEL-28 melanoma
[29] = test system: HOP-92 NSCLC
[30] = test system: BT-549 breast
[31] = test system: SK-OV-3 ovarian
[32] = test system: PC-3 prostate
[33] = test system: K-562 leukemia
[34] = test system: HOP-62 NSCLC
[35] = test system: TK-10 renal
[36] = test system: HT29 colon
[37] = test system: SF-539 CNS
[38] = test system: MDA-MB-435
[39] = test system: HCT-116 colon
[40] = test system: SF-295 CNS
[41] = test system: EKVX NSCLC
[42] = test system: 786-0 renal
[43] = test system: KM12 colon
[44] = test system: HCT-15 colon
[45] = test system: LOX IMVI melanoma
[46] = test system: UO-31 renal
[47] = test system: UACC-257 melanoma
[48] = test system: ACHN renal

NCC1OC(OC2C(CO)OC(OC3C(O)C(N)CC(N)C3OC3OC(CO)C(O)C(O)C3N)C2O)C(N)C(O)C1O (stereo unspecified)
> 50 µg/mL: TGI [1] | TGI [2] | TGI [3] | TGI [4] | TGI [5] | TGI [6] | TGI [7] | TGI [8] | TGI [9] | TGI [10] | TGI [11] | TGI [12] | TGI [13] | TGI [14] | TGI [15] | TGI [16] | TGI [17] | TGI [18] | TGI [19] | TGI [20] | TGI [21] | TGI [22] | TGI [23] | TGI [24] | TGI [25] | TGI [26] | TGI [27] | TGI [28] | TGI [29] | TGI [30] | TGI [31] | TGI [32] | TGI [33] | TGI [34] | TGI [35] | TGI [36] | TGI [37] | TGI [38] | TGI [39] | TGI [40] | TGI [41] | TGI [42] | TGI [43] | TGI [44] | TGI [45] | TGI [46] | TGI [47] | TGI [48]
inactive: GI50 [1] > 50 µg/mL | GI50 [2] > 50 µg/mL | GI50 [3] > 50 µg/mL | GI50 [4] > 50 µg/mL | GI50 [5] > 50 µg/mL | GI50 [6] > 50 µg/mL | GI50 [7] > 50 µg/mL | GI50 [8] > 50 µg/mL | GI50 [9] > 50 µg/mL | GI50 [10] > 50 µg/mL | GI50 [11] > 50 µg/mL | GI50 [12] > 50 µg/mL | GI50 [13] > 50 µg/mL | GI50 [14] > 50 µg/mL | GI50 [15] > 50 µg/mL | GI50 [16] > 50 µg/mL | GI50 [17] > 50 µg/mL | GI50 [18] > 50 µg/mL | GI50 [19] > 50 µg/mL | GI50 [20] > 50 µg/mL | GI50 [21] > 50 µg/mL | GI50 [22] > 50 µg/mL | GI50 [23] > 50 µg/mL | GI50 [24] > 50 µg/mL | GI50 [25] > 50 µg/mL | GI50 [26] > 50 µg/mL | GI50 [27] > 50 µg/mL | GI50 [28] > 50 µg/mL | GI50 [29] > 50 µg/mL | GI50 [30] > 50 µg/mL | GI50 [31] > 50 µg/mL | GI50 [32] > 50 µg/mL | GI50 [33] > 50 µg/mL | GI50 [34] > 50 µg/mL | GI50 [35] > 50 µg/mL | GI50 [36] > 50 µg/mL | GI50 [37] > 50 µg/mL | GI50 [38] > 50 µg/mL | GI50 [39] > 50 µg/mL | GI50 [40] > 50 µg/mL | GI50 [41] > 50 µg/mL | GI50 [42] > 50 µg/mL | GI50 [43] > 50 µg/mL | GI50 [44] > 50 µg/mL | GI50 [45] > 50 µg/mL | GI50 [46] > 50 µg/mL | GI50 [47] > 50 µg/mL | GI50 [48] > 50 µg/mL
